Experiments:
[1] = test system: patients with moderate to severe tardive dyskinesia; assay: ARM-TD randomized, double-blind, placebo-controlled study; assay type: in vivo, human
Description: An additional clinical study, Aim to Reduce Movements in […] Dyskinesia (ARM-TD) was designed and conducted to evaluate the efficacy of SD-809 (deutetrabenazine) in the treatment of moderate to severe tardive dyskinesia. […] Subjects were screened for inclusion in the study as follows. Inclusion criteria included: between 18 and 75 years of age, inclusive; history of using a dopamine receptor antagonist for at least 3 months (or 1 month in subjects 60 years of age and older); clinical diagnosis of TD, and has had symptoms for at least 3 months prior to Screening; […] Dosing. […] Drug was then administered at that dose for another six weeks for a total treatment of 12 weeks, followed by a 1-week washout period. […] Dose suspensions of up to one week were permitted if the subject experienced a clinically significant adverse event. Study Objectives and Endpoints. The objectives of the study was to evaluate the efficacy of SD-809 in reducing the severity of abnormal involuntary movements associated with tardive dyskinesia and the safety and tolerability of titration and maintenance therapy with deutetrabenazine in subjects with drug-induced tardive dyskinesia. […] Baseline AIMS score is defined for each subject as the Day 0 assessment. The AIMS is composed of 12 clinician-administered and scored items. Items 1-10 are rated on a 5-point, anchored scale and consist of the following: • Items 1-4 assess orofacial movements; • Items 5-7 deal with extremity and truncal dyskinesia; • Items 8-10 deal with global severity as judged by the examiner, and the patient's awareness of the movements and the distress associated with them; and • Items 11-12 are yes/no questions concerning problems associated with teeth and/or dentures, as such problems can be mistaken for dyskinesia. […] As with previous studies, […] treatment success may be defined as Much or Very Much Improved on a 7-point Likert Scale, ranging from very much worse to very much improved at Week 12. The CDQ-24 is a disease-specific quality of life questionnaire developed for use in patients with craniocervical dystonia, including both cervical dystonia (CD) and blepharospasm (BPS). The CDQ-24 was selected for use in the present study because it includes domains which are relevant not only to CD and BPS, but to TD, such as stigma, emotional well-being, pain, activities of daily living, and social/family life. For the present study, the CDQ-24 has been modified such that the questions focus more directly on the impact of TD (as opposed to CD/BPS) on quality of life. […] Measurements and Statistics. Digital video recordings of AIMS assessments made at all clinic visits (at Screening, Baseline, Weeks 2, 4, 6, 9, and 12) were rated by pairs of central raters who were experts in movement disorders and were blinded to treatment arm, sequence of video, and the investigator AIMS score. Analysis was carried out using a linear mixed model for repeated measurements (MMRM) with the change in the AIMS score as the dependent variable. The model included fixed effects for treatment group, time point (five levels: Weeks 2, 4, 6, 9, and 12), the treatment group by time point interaction, and the randomization stratification variable. The unstructured covariance model was used and the primary analysis compared the deutetrabenazine and placebo groups at Week 12 using a two-sided test at the 5% level of significance.

[2] = test system: subjects with chorea associated with HD; conditions: in vivo
Description: First-HD was a randomized, double-blind, placebo-controlled, parallel-group study designed to evaluate the efficacy, safety, and tolerability of deutetrabenazine in subjects with chorea associated with HD. This trial was conducted in the United States and Canada, in collaboration with the Huntington Study Group.
Subjects in First-HD were treated with deutetrabenazine or placebo, starting at 6 mg once per day and titrating weekly to doses of up to 24 mg twice per day (48 mg total maximum daily dose). A total of 90 subjects (45 in each group) were enrolled for evaluation over 13 weeks. Subjects were individually titrated to an optimal dose over up to eight weeks, received maintenance therapy at the optimal dose for four weeks, and were taken off study medication in the final week of the trial.
The primary efficacy endpoint for the study was the change from baseline to maintenance therapy (average of Week 9 and Week 12 values) in the maximal chorea score of the UHDRS. The total maximal score, or TMC, is a clinician-based, quantitative assessment of chorea in seven body regions: face, mouth/tongue, trunk, and the four extremities, with higher scores representing more severe chorea.
The total motor score (TMS) of the UHDRS was prespecified as an additional efficacy endpoint in First-HD. The TMS assesses all the motor features of HD, including items addressing characteristic motor abnormalities other than chorea, such as dystonia, gait, parkinsonism, and postural instability.
The clinical relevance of the change in the TMC score was assessed with four prespecified secondary endpoints that assessed changes from baseline to end of treatment (Week 12). These secondary endpoints were tested in a hierarchical manner: • 1. Treatment success based on patient global impression of change (PGIC); • 2. Treatment success based on clinical global impression of change (CGIC); • 3. Physical Functioning Scale of the SF-36; and • 4. Balance, as assessed by the Berg Balance Test (BBT).
The PGIC and CGIC are single-item questionnaires that ask the subject and investigator, respectively, to assess a subject's overall HD symptoms at specific visits after initiating therapy. Both assessments use a 7-point Likert Scale, with responses ranging from Very Much Worse (−3) to Very Much Improved (+3) to assess overall response to therapy.
Adverse events (AE) and their potential association with treatment were also monitored. Categories of AEs of particular focus included those known to be associated with tetrabenazine use: • Psychiatric disorders: insomnia, depression/agitated depression, abnormal dreams, agitation, anxiety, suicidal ideation, compulsions, impulsive behavior, and sleep disorders; • Nervous system disorders: somnolence, dizziness, akathisia/restlessness, cognitive disorders, drooling, dyskinesia, migraine, headache, loss of consciousness, and syncope (fainting); • General disorders: irritability, fatigue, gait disturbance, chest pain, and hangover; and • Gastrointestinal disorders: diarrhea, dry mouth, constipation, nausea, upper abdominal pain, dyspepsia, frequent bowel movements, gastrointestinal pain, vomiting, dysphagia, flatulence, and salivary hypersecretion.
In addition to AE reporting, rating scales were used to monitor for potential subclinical toxicity due to excessive monoamine depletion. […] These scales applied in First-HD included the Hospital Anxiety and Depression Scale (HADS), the Columbia Suicide Severity Rating Scale (C-SSRS), the Swallowing Disturbance Questionnaire (SDQ), the Unified Parkinson's Disease Rating Scale (dysarthria item) (UPDRS [dysarthria]), the Barnes Akathisia Rating Scale (BARS), and the Epworth Sleepiness Scale (ESS). In addition, the UHDRS, which includes cognitive, behavioral, and functional measures, was performed at key visits.

[3] = n = 58, count (percent), listed as DTBZ

Q: For [2H]C([2H])([2H])Oc1cc2c(cc1OC([2H])([2H])[2H])C1CC(=O)C(CC(C)C)CN1CC2 (stereo not drawn) [deutetrabenazine, (RR, SS)-1,3,4,6,7,11b-hexahydro-9,10-di(methoxy-d3)-3-(2-methylpropyl)-2H-benzo[a]quinolizin-2-one], which “CGIC Treatment Success, Treatment Difference” value ([1]; DTBZ vs Placebo) is on record?
A: The value was 7.90%.

Q: And the “Change from baseline mCDQ-24, Treatment Difference” value ([1]; DTBZ vs Placebo)?
A: Its value is −2.7.

Q: And the “PGIC Treatment Success, Treatment Difference” value ([1]; DTBZ vs Placebo)?
A: The value was 13.00%.

Q: And the “AIMS Change (LS Mean), Treatment Difference” value ([1]; DTBZ vs Placebo, p-value 0.0188)?
A: Its value is −1.4.

Q: And the “Change from baseline mCDQ-24” value ([1]; N = 56)?
A: Its value is −11.1.

Q: What about the “CGIC Treatment Success (%)” value ([1]; Week 12, N = 56) of the same compound?
A: Its value is 48.20%.

Q: And the “PGIC Treatment Success N (%)” value ([1]; Week 12, N = 56)?
A: Its value is 42.90%.

Q: What about the “AIMS Change (LS Mean)” value ([1]; baseline to Week 12, N = 56) of the same compound?
A: The value was −3.

Q: What about the “improvement on the AIMS score” value ([1]; baseline to end of therapy) of the same compound?
A: Its value is 3.0 points.

Q: And the Depression/depressed mood reported ([1]; in vivo)?
A: Its Depression/depressed mood reported is “one patient”.

Q: What about the suicidal ideation reported ([1]; in vivo) of the same compound?
A: Its suicidal ideation reported is “none”.

Q: And the “Any TEAEs (Treatment-Emergent Adverse Events)” value ([1]; n = 58, count (percent))?
A: The value was 41 (70.7%).

Q: And the “TEAE Anxiety” value ([1]; n = 58, count (percent))?
A: Its value is 3 (5.2%).

Q: And the “TEAE Chest pain” value ([1]; n = 58, count (percent))?
A: Its value is 1 (1.7%).

Q: And the “TEAE Constipation” value ([1]; n = 58, count (percent))?
A: The value was 2 (3.4%).

Q: And the “TEAE Diarrhea” value ([1]; n = 58, count (percent))?
A: The value was 3 (5.2%).

Q: And the “TEAE Dizziness” value ([1]; n = 58, count (percent))?
A: Its value is 2 (3.4%).

Q: What about the “TEAE Dry mouth” value ([1]; n = 58, count (percent)) of the same compound?
A: The value was 2 (3.4%).

Q: What about the “TEAE Fatigue” value ([1]; n = 58, count (percent)) of the same compound?
A: Its value is 4 (6.9%).

Q: What about the “TEAE Headache” value ([1]; n = 58, count (percent)) of the same compound?
A: The value was 4 (6.9%).

Q: And the “TEAE Nasopharyngitis” value ([1]; n = 58, count (percent))?
A: Its value is 2 (3.4%).

Q: What about the “TEAE Nausea” value ([1]; n = 58, count (percent)) of the same compound?
A: Its value is 2 (3.4%).

Q: What about the “TEAE Pneumonia” value ([1]; n = 58, count (percent)) of the same compound?
A: Its value is 1 (1.7%).

Q: And the “TEAE Upper respiratory tract infection” value ([1]; n = 58, count (percent))?
A: The value was 2 (3.4%).

Q: What about the “TEAE Vomiting” value ([1]; n = 58, count (percent)) of the same compound?
A: The value was 1 (1.7%).

Q: And the “Serious TEAEs” value [1, 3]?
A: The value was 4 (6.9%).

Q: And the “TEAE Akathisia” value [1, 3]?
A: Its value is 3 (5.2%).

Q: And the “TEAE Insomnia” value [1, 3]?
A: The value was 4 (6.9%).

Q: And the “TEAE Somnolence/sedation” value [1, 3]?
A: Its value is 9 (15.5%).

Q: And the “TEAEs Resulting in Study Withdrawal” value [1, 3]?
A: The value was 1 (1.7%).

Q: And the “deaths in the study” value [2]?
A: The value was “no deaths”.

From patent US12016858B2, “Methods for the treatment of abnormal involuntary movement disorders” (AUSPEX PHARMACEUTICALS, INC., priority 2015, dated 2024)
